Data taken from patent US9089640B2, “Apparatus and kit for encapsulating at least one compound for therapeutic and/or diagnostic use in erythrocytes” (ERYDEL S.p.A., priority 2010, dated 2015).

Test system: autologous IgGs
Experiment: Recognition of treated erythrocytes by autologous IgGs (targeting to macrophages)
Assay type: cell-based
Description: The targeting to macrophages of erythrocytes containing drugs and/or contrast means can be achieved by the apparatus shown in the figure following a procedure similar to that used in example 1. When fludarabine was used as an encapsulating agent, a final concentration of 0.8 mM was obtained. The erythrocytes treated in this way were recognised by autologous IgGs in percentages over 80% the total number of processed cells.

## Nc1nc(F)nc2c1ncn2[C@@H]1O[C@H](CO)[C@@H](O)[C@@H]1O [fludarabine]
  Treated erythrocytes recognised by autologous IgGs, percentage of total number of processed cells: over 80%
